# Experimental data published in US20060002946A1, “Targeted immunogens” (Aventis Pasteur, Inc., priority 2003, published 2006).
# “Also recorded” adds a separate entry of the source.
# Experiments:
# [1] = system: Splenocytes from C57BL/6 mice; assay: In vitro analysis of NP peptide presentation, IFN-γ ELISPOT (FIG. 12); format: cell-based, mouse; conditions: 10 ug/ml pulse 1 hour; for duration of ability of pulsed cells to stimulate T cells: incubation up to 120 hours (limit of the assay)
# Procedure: FIG. 12. In vitro analysis of NP peptide presentation. Splenocytes from C57BL/6 mice were pulsed with 10 ug/ml of the indicated peptides for 1 hour at 37C., washed, and incubated for 0, 24, 72, or 120 hours. Cells were then tested by ELISPOT for their ability to induce IFN-γ secretion from NP-specific T cells.
# FIG. 12 illustrates a similar analysis performed using the NP system.
# RMA cells = assay: Sensitization of RMA target cells for CTL lysis, chromium release assay; format: cell-based, mouse; conditions: 10 pg/ml peptide, 1 hour at 37° C., 4-hour chromium release, T cells of influenza-immunized C57BL/6 mice
# Procedure: FIG. 1. In vitro sensitization of target cells for peptide-specific lysis by hPER1 conjugates.
# To determine whether hPER1-CTL conjugates can form CTL target structures, ^51Cr-labeled RMA cells were pulsed with 10^−11 g/ml NP peptide ([…]) or hPER1-NP peptide ([…]), or were left untreated (no peptide) and incubated for 1 hour at 37° C. The cells were then washed and tested for CTL recognition in a standard 4-hour chromium release assay, using T cells obtained from the spleens of C57BL/6 mice immunized with influenza virus.
# C57BL/6 mice [2] = assay: i.v. injection of peptide-pulsed dendritic cells, CTL chromium release (FIG. 4); format: in vivo, mouse; conditions: 5×10^5 pulsed DCs i.v., one week post immunization, SIINFEKL-pulsed targets
# Procedure: FIG. 4. CTL responses in C57BL/6 nice following intravenous (i.v.) injection of peptide-pulsed DCs. Mice were immunized i.v. with 5×10^5 bone marrow-derived DCs pulsed with the indicated peptides.
# Consequently, we tested the ability of transcytosis peptides to generate CTL responses in the context of a DC-based vaccine. Murine bone marrow derived dendritic cells were matured in vitro, pulsed with either […] alone, conjugated with either Tat or hPER1 with or without linkers, and were injected intravenously in the tail vein of C57BL/6 mice. One week post immunization, the splenocytes from vaccinated animals were tested for CTL activity following in vitro restimulation.
# A2/Kb mice = assay: Immunization with gp100-154 peptides plus or minus helper CD4 peptide, CTL assay (FIGS. 6, 8, 13); format: in vivo, mouse; conditions: for CTL responses / cytotoxicity at three weeks and three months: s.c. immunization, FIG. 13
# Excerpt: Results shown represent the mean value of four individual mice for each group.
# FIG. 8. The presence of a helper CD4 hepatitis B peptide is essential for the generation of CTL responses against a CD8 peptide. A2/Kb mice were inoculated intranasally with hPER1-FVYVW-154 peptide at different doses from 50 nmoles to 1 nmoles with or without helper peptide.
# FIG. 13. Induction of long-term immunity following hPER1-FVYVW-gp100-154 peptide immunization. CTL responses in A2/Kb mice following 3 weeks or 3 months subcutaneous immunization with gp100-154 epitope alone or in association with hPER1-FVYVW. […] Short-term (3 weeks) as well as long-term (3 months) T cell responses are observed in 4/4 or ¾ mice respectively following hPEr1-FVYVW-154 immunization.
# (§1) In carrying out the experiments described in FIGS. 6 and 13, mice were immunized by the specified route with 50 nmol (if not specified otherwise) of peptide plus 50 nmol of a hepatitis B epitope in mice to serve as a helper CD4 peptide. Three weeks after the first injection a boost was carried out with the same regimen, and three weeks after that, spleens were harvested and homogenized to a single suspension. Whole splenocytes were placed into culture with 0.5 ug/ml of the epitope peptide and incubated at 37 degrees for five days. A CTL assay was conducted on day five of culture after Ficoll treatment to purify live cells. Controls that were used are matched Kb or A2 binding peptides.
# mice = assay: Summary of in vivo Immunogenicity Studies (Table IV); set-up: species or system mouse
# [3] = system: HLA-A2/Kb transgenic mice; assay: s.c. peptide immunization, gp100-154 CTL chromium release (FIG. 5); conditions: 50 ug s.c., boosts days 21 and 42, day 63
# Procedure: CTL responses in HLA-A2/Kb transgenic mice following subcutaneous (s.c.) injection of peptide. Mice were immunized s.c. with 50 ug of the indicated peptides and boosted on days 21 and 42 following the first injection. Splenocytes from immunized animals were harvested on day 63 post immunization, re-stimulated with the native gp100-154 peptide for 5 days, and tested for CTL activity in a standard chromium release assay using target cells pulsed with gp100-154 peptide.
# Furthermore, CTL responses were assessed in HLA-A2/K^b transgenic mice (Sherman strain) following s.c. immunization with gp100-154 peptide alone, conjugated to hPER1 or AntpHD with or without linker FVYVW. Mice were boosted on days 21 and 42 and splenocytes from vaccinated animals were harvested on day 63 and tested for CTL activity after 5 days of restimulation in vitro.
# C57BL/6 mice [4] = assay: Immunization with […] conjugates, CTL assay (FIGS. 7, 9, 10); format: in vivo, mouse; conditions: for cytotoxicity levels, adjuvant free immunization: s.c. without adjuvant; for CTL responses / cytotoxicity, Tat versus hPER1 conjugates: s.c., DEVWEL linker, FIG. 7
# Excerpt: FIG. 7. In vivo induction of T cell responses using hPER1 or Tat peptides conjugated to […] epitope. Mice were immunized subcutaneously with […] peptide associated to either Tat or hPER1 with the DEVWEL linker sequence. Results shown in this figure represent the mean value of 4 individual mice for each group.
# FIG. 9. […] C57BL/6 mice were immunized intradermally with different doses of hPER1-SGQL-[…] with or without helper peptide.
# FIG. 10. In vivo induction of immunity following adjuvant free peptide immunization with hPER1 associated to […] in the presence of different linker sequences.
# as §1
# [5] = system: Splenocytes from C57BL/6 mice; assay: In vitro analysis of OVA ([…]) peptide presentation, IFN-γ ELISPOT (FIG. 11); format: cell-based, mouse; conditions: 10 ug/ml pulse 1 hour; for stimulatory activity of pulsed cells after 30 hours: 30 hours incubation, IFN-γ ELISPOT
# Procedure: FIG. 11. In vitro analysis of OVA ([…]) peptide presentation. Splenocytes from C57BL/6 mice were pulsed with 10 ug/ml of the indicated peptides for 1 hour at 37° C., washed, and incubated for 0, 4, 8, 24, or 30 hours. Cells pulsed with transduction peptides were pre-incubated with a bGAL peptide to block any cell surface binding. The cells were then tested by ELISPOT for their ability to induce IFN-γ secretion from […]-specific T cells. Spot counts greater than 300/well could not be counted. *=sample not tested.
# To further study the effect of coupling CTL epitopes to the hPER1 transduction domain, the following in vitro assay was developed to assess the kinetics of antigen presentation following incubation of cells with peptide. In FIG. 11, splenocytes from C57BL/6 mice were incubated with different OVA-based peptides for 1 hour at 37° C. The cells were then washed to remove any residual free peptide, and incubated in culture medium at 37° C. for 0, 4, 8, 24 or 30 hours. The cells were then tested for their ability to stimulate IFN-γ production from […]-specific T cells by ELISPOT.
# [6] = grades − to + + + +, key not given
substance,measurement,setting,value
ASNENMETM [reference compound],stimulatory activity of pulsed cells after 24 hours of incubation,[1]; IFN-γ ELISPOT with NP-specific T cells,shows a loss in activity
"GRRHHRRSKAKRSRASNENMETM [hPER1, no linker, flu NP366-374]",duration of ability of pulsed cells to stimulate T cells,[1],retain their ability to stimulate T cells out to five days
same,sensitization of RMA target cells for CTL-mediated lysis,RMA cells,can be sensitized for CTL-mediated lysis
GYGRKKRRQRRR-LEQLE-SIINFEKL,CTL responses after peptide-pulsed DC vaccine,C57BL/6 mice [2],less immunogenic than TAT-SIINFEKL without linker
KTWGQYWQV [reference compound],CTL responses / cytotoxicity at three weeks and three months,A2/Kb mice; listed as 154,did not induce cytotoxicity at either three weeks or three months; also recorded: does not generate significant CTL responses
"RQIKIWFQNRRMKWKKFVYVWKTWGQYWQV [AntpHD, linker FVYVW, gp100-154]",Immunogenicity in mice,mice; [6],+ + + +
"RQIKIWFQNRRMKWKKLKTWGQYWQV [AntpHD, linker L, gp100-154]",Immunogenicity in mice,mice; [6],+ + +
RQIKIWFQNRRMKWKKTWVGQYWQV,CTL responses against gp100-154,[3],a weak response was observed
"RRHHRRSKAKRSRDEVWELSIINFEKL [hPER1, linker DEVWEL, OVA]",Immunogenicity in mice,mice; [6],+ + + +
same,"cytotoxicity levels, adjuvant free immunization",C57BL/6 mice [4]; FIG. 10,comparable
same,"CTL responses / cytotoxicity, Tat versus hPER1 conjugates",C57BL/6 mice [4],gave the best CTL responses as compared to the positive control SIINFEKL in IFA
same,"CTL responses / cytotoxicity, Tat versus hPER1 conjugates",C57BL/6 mice [4]; listed as hPER1-DEVWEL-SIINFEKL,induced a greater level of cytotoxicity as compared to Tat-DEVWEL-SIINFEKL at all E:T ratios tested
"RRHHRRSKAKRSRFVYVWKTWGQYWQV [hPER1, linker FVYVW, gp100-154] [listing 1 of 2 here]",Immunogenicity in mice,"mice; mouse, in vivo",+ + + +
"RRHHRRSKAKRSRFVYVWKTWGQYWQV [hPER1, linker FVYVW, gp100-154] [listing 2 of 2 here]",CTL responses by different routes of immunization,"A2/Kb mice; 50 nmol peptide plus 50 nmol helper peptide, intradermal, subcutaneous or intranasal",can be generated through different routes of immunization
same,cytotoxicity at 10 nmoles without helper peptide,"A2/Kb mice; intranasal, 10 nmoles, absence of helper peptide",does not induce significant cytotoxicity
same,"T cell cytotoxicity, without helper peptide","A2/Kb mice; intranasal, in the absence of helper peptide",induced much lower levels of cytotoxicity
same,"T cell cytotoxicity, with helper peptide","A2/Kb mice; intranasal, in the presence of helper CD4 hepatitis B peptide",induced significant T cell cytotoxicity
same,CTL responses / cytotoxicity at three weeks and three months,A2/Kb mice,induced cytotoxicity that was detectable for at least three months
same,mice with long-term T cell responses,"A2/Kb mice; s.c., 3 months, 4 mice/group",¾
same,mice with short-term T cell responses,"A2/Kb mice; s.c., 3 weeks, 4 mice/group",4/4
"RRHHRRSKAKRSRFVYVWSIINFEKL [hPER1, linker FVYVW, OVA]",Immunogenicity in mice,mice; [6],+ + + +
same,"cytotoxicity levels, adjuvant free immunization",C57BL/6 mice [4]; FIG. 10,comparable
"RRHHRRSKAKRSRFVYVWSVYDFFVWL [hPER1, linker FVYVW, TRP-2]",Immunogenicity in mice,mice; [6],+ + +
"RRHHRRSKAKRSRLSVYDFFVWL [hPER1, linker L, TRP2]",Immunogenicity in mice,mice; [6],+ +
"RRHHRRSKAKRSRRGVQIASNENMETM [hPER1, linker RGVQI, flu NP366-374]",duration of ability of pulsed cells to stimulate T cells,[1],retain their ability to stimulate T cells out to five days
"RRHHRRSKAKRSRSGQLSIINFEKL [hPER1, linker SGQL, OVA]",stimulatory activity of pulsed cells after 30 hours,[5],no reduction in activity
same,T cell responses without helper peptide at higher peptide dose,"C57BL/6 mice [4]; intradermal, different doses, absence of helper peptide, FIG. 9",can induce T cell responses in mice
"RRHHRRSKAKRSRSIINFEKL [hPER1, no linker, OVA]",CTL responses after peptide-pulsed DC vaccine,C57BL/6 mice [2],generated a stronger response than either DCs pulsed with native SIINFEKL peptide or hPER1-LEQLE-SIINFEKL
"RRHHRRSKAKRSRSVYDFFVWL [hPER1, no linker, TRP-2]",Immunogenicity in mice,mice; [6],+ +
SIINFEKL [reference compound],incubation time by which pulsed cells lose their stimulatory capacity,[5]; IFN-γ ELISPOT with SIINFEKL-specific T cells,≤ 24 h
same,"cytotoxicity levels, peptide in IFA","C57BL/6 mice [4]; administered with incomplete Fruend's adjuvant, FIG. 10",comparable
"SVYDFFVWL [TRP2 peptide, unconjugated, reference compound]",Immunogenicity in mice,mice; [6],+ +
same,CTL responses after peptide-pulsed DC vaccine,C57BL/6 mice [2],non immunogenic
YGRKKRRQRRRDEVWELSIINFEKL,stimulatory activity of pulsed cells after 30 hours,[5],no reduction in activity
same,Immunogenicity in mice,"mice; mouse, in vivo",+ + +
